Columns and labels:
[1] = target: D(3) dopamine receptor (Homo sapiens, UniProt P35462); test: DRUGMATRIX: Dopamine D3 radioligand binding (ligand: [3H] Spiperone); assay type: cell membranes, CHO, Membrane
[2] = target: T1, Neutrophil elastase (Homo sapiens, UniProt P08246); assay type: tissue-based;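 also: inhibition of neutrophil elastase enzyme activity, measured with a p-nitroanilide-linked peptide substrate; in other assays of this panel Not Active means under 50% inhibition at 10 µM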
T1 sequence (P08246 whole entry): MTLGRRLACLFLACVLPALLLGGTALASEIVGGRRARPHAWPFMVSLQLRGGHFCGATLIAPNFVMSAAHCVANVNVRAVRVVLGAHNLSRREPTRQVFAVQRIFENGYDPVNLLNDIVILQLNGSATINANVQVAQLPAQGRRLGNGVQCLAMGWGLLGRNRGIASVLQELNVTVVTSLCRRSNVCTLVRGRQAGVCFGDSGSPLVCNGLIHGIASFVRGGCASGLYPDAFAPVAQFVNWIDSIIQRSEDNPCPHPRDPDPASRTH

[3] = DRUGMATRIX: Phosphodiesterase PDE4 enzyme inhibition (substrate: [3H]cAMP + cAMP); settings: u-937; Not Active = under 50% inhibition at 10 µM
[4] = DRUGMATRIX: Leukotriene, BLT (LTB4) radioligand binding (ligand: [3H]LTB4); assay type: cell membranes, Membrane; settings: u-937, Not Active = under 50% inhibition at 10 µM
[5] = target: T2, Interstitial collagenase (Homo sapiens, UniProt P03956); test: biochemical; assay type: tissue-based, Rheumatoid synovial fibroblasts;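 also: MMP-1 enzyme inhibition assay using a peptide substrate; in other assays of this panel Not Active means under 50% inhibition at 10 µM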
T2 sequence (P03956 whole entry): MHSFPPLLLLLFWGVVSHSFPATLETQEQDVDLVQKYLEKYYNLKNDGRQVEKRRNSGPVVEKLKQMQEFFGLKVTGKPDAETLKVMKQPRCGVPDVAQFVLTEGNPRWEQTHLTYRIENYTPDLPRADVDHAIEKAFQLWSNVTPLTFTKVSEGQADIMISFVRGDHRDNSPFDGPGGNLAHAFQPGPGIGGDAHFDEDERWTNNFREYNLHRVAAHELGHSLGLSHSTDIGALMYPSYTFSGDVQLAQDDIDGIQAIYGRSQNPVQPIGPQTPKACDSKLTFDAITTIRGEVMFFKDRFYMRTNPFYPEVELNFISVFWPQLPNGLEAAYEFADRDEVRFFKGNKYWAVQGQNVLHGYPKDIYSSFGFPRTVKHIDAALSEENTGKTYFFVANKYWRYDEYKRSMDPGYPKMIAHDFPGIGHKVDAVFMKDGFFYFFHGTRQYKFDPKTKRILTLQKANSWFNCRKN

[6] = target: C-C chemokine receptor type 5 (Homo sapiens, UniProt P51681); assay type: cell membranes, HEK293, Membrane; settings: hek293; also: in other assays of this panel Not Active means under 50% inhibition at 10 µM
Chain of C-C chemokine receptor type 5 (P51681 whole entry): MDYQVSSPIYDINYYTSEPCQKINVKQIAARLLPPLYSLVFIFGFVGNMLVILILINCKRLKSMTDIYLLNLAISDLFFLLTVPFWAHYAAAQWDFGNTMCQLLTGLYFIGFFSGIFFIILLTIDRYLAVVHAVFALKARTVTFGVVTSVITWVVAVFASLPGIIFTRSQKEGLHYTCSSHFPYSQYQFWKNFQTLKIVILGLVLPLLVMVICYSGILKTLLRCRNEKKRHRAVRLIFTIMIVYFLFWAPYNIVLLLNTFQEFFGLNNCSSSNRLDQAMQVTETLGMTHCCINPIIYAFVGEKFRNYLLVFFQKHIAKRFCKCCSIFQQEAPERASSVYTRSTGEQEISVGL

[7] = target: T3, Cholecystokinin receptor type A (Homo sapiens, UniProt P32238); assay type: cell membranes, Membrane; settings: 1321-n1; also: in other assays of this panel Not Active means under 50% inhibition at 10 µM
T3 sequence (P32238 whole entry): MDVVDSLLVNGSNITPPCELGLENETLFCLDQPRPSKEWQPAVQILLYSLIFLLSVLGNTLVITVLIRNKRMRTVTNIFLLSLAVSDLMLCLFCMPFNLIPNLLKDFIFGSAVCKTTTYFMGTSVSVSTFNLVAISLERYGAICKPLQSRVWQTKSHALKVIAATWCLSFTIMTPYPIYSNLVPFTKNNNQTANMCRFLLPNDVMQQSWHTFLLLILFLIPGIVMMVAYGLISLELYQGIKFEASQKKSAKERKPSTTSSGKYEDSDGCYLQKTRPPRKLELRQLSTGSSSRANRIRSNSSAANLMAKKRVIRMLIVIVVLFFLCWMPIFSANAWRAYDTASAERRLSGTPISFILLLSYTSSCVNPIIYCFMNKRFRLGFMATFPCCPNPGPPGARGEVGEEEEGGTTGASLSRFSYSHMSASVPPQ

Chain of D(3) dopamine receptor (P35462 whole entry): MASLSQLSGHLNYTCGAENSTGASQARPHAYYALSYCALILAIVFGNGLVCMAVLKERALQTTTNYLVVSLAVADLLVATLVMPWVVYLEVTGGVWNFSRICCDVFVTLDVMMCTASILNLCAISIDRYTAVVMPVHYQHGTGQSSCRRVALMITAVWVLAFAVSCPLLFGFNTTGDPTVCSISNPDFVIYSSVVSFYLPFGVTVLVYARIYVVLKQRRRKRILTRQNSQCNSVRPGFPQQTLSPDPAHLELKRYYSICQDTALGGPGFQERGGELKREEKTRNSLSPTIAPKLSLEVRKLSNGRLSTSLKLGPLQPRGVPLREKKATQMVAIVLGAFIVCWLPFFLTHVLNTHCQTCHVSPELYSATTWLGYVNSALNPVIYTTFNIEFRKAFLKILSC

| Molecule | IC50 ([1]; cho) | IC50 [2] | IC50 [3] | Ki [3] | IC50 [4] | Ki [4] | IC50 [5] | IC50 [6] | IC50 [7] | Ki ([1]; cho) | Ki [2] | Ki [5] | Ki [6] | Ki [7] | IC50 ([1]; read-out: IC50) | Ki ([1]; read-out: Ki) | IC50 ([4]; read-out: IC50) | Ki ([4]; read-out: Ki) |
| --- | --- | --- | --- | --- | --- | --- | --- | --- | --- | --- | --- | --- | --- | --- | --- | --- | --- | --- |
| CCN1CCN(c2cc3c(cc2F)c(=O)c(C(=O)O)cn3C2CC2)CC1 [ENROFLOXACIN] | Not Active | Not Active | Not Active | Not Active | Not Active | Not Active | Not Active | Not Active | Not Active |  |  |  |  |  |  |  |  |  |
| C[N+](C)(C)CCOP(=O)([O-])OC[C@H](O)CO | Not Active | Not Active | Not Active | Not Active | Not Active | Not Active | Not Active | Not Active | Not Active |  |  |  |  |  |  |  |  |  |
| O=C(Nc1ccc(Cl)c(Cl)c1)c1cc(Cl)cc(Cl)c1O [3,3',4',5-TETRACHLOROSALICYLANILIDE] | Not Active | Not Active | Not Active | Not Active | Not Active | Not Active | Not Active | Not Active | Not Active |  |  |  |  |  |  |  |  |  |
| O=C(O)COC(=O)Cc1ccccc1Nc1c(Cl)cccc1Cl [ACECLOFENAC] | Not Active | Not Active | Not Active | Not Active | Not Active | Not Active | Not Active | Not Active | Not Active |  |  |  |  |  |  |  |  |  |
| O=c1[nH]c2ccccc2c2ccccc12 | Not Active | Not Active | Not Active | Not Active | Not Active | Not Active | Not Active | Not Active | Not Active |  |  |  |  |  |  |  |  |  |
| C=CCN1CC[C@]23c4c5ccc(O)c4O[C@H]2/C(=N/N=C2\CC[C@@]4(O)[C@H]6Cc7ccc(O)c8c7[C@@]4(CCN6CC=C)[C@H]2O8)CC[C@@]3(O)[C@H]1C5 [NALOXONAZINE] | Not Active | Not Active | Not Active | Not Active | Not Active | Not Active | Not Active | Not Active | Not Active |  |  |  |  |  |  |  |  |  |
| ClC1=C(Cl)[C@]2(Cl)[C@@H]3[C@@H]4C[C@@H]([C@H]5O[C@@H]45)[C@@H]3[C@@]1(Cl)C2(Cl)Cl [DIELDRIN] | Not Active | Not Active | Not Active | Not Active | Not Active | Not Active | Not Active | Not Active | Not Active |  |  |  |  |  |  |  |  |  |
| COPPER(II) OXIDE | Not Active | Not Active | Not Active | Not Active | Not Active | Not Active | Not Active | Not Active | Not Active | Not Active | Not Active | Not Active | Not Active | Not Active |  |  |  |  |
| CCO [ALCOHOL] | Not Active | Not Active | Not Active | Not Active | Not Active | Not Active | Not Active | Not Active | Not Active |  |  |  |  |  |  |  |  |  |
| CC(N)Cc1c[nH]c2ccc(OCc3cccs3)cc12 (centres undefined) [BW-723C86] | Not Active | Not Active | Not Active | Not Active | Not Active | Not Active | Not Active | Not Active | Not Active |  |  |  |  |  |  |  |  |  |
| CCN(CCO)CCCC(C)Nc1ccnc2cc(Cl)ccc12 (centres undefined) [HYDROXYCHLOROQUINE] | Not Active | Not Active | Not Active | Not Active | Not Active | Not Active | Not Active | Not Active | Not Active |  |  |  |  |  |  |  |  |  |
| c1ccc2sc(SSc3nc4ccccc4s3)nc2c1 [BENZOTHIAZYL DISULFIDE] |  | Not Active | Not Active | Not Active |  |  | Not Active | Not Active | Not Active |  |  |  |  |  | 0.851 µM | 0.289 µM | 5.1 µM | 1.3 µM |
| CC(C)Cc1ccc([C@H](C)C(=O)O)cc1 [DEXIBUPROFEN] | Not Active | Not Active | Not Active | Not Active | Not Active | Not Active | Not Active | Not Active | Not Active |  |  |  |  |  |  |  |  |  |
| Cl.NC[C@H]1CC[C@H](C(=O)Oc2ccc(CCC(=O)O)cc2)CC1 [CETRAXATE HYDROCHLORIDE] | Not Active | Not Active | Not Active | Not Active | Not Active | Not Active | Not Active | Not Active | Not Active |  |  |  |  |  |  |  |  |  |
| Nc1nc(N)c2nc(CNc3ccc(C(=O)N[C@@H](CCC(=O)O)C(=O)O)cc3)cnc2n1 [AMINOPTERIN] | Not Active | Not Active | Not Active | Not Active | Not Active | Not Active | Not Active | Not Active | Not Active |  |  |  |  |  |  |  |  |  |
| NC(=O)NC(=O)Cc1ccccc1 [PHENACEMIDE] | Not Active | Not Active | Not Active | Not Active | Not Active | Not Active | Not Active | Not Active | Not Active |  |  |  |  |  |  |  |  |  |
| C[N+](C)(C)CCOC(N)=O.[Cl-] [CARBACHOL] | Not Active | Not Active | Not Active | Not Active | Not Active | Not Active | Not Active | Not Active | Not Active |  |  |  |  |  |  |  |  |  |
| O=C1c2ccccc2C(=O)C1c1ccccc1 [PHENINDIONE] | Not Active | Not Active | Not Active | Not Active | Not Active | Not Active | Not Active | Not Active | Not Active |  |  |  |  |  |  |  |  |  |
| CC(C)NCC(O)COc1ccc(CC(N)=O)cc1 (centres undefined) [ATENOLOL] | Not Active | Not Active | Not Active | Not Active | Not Active | Not Active | Not Active | Not Active | Not Active |  |  |  |  |  |  |  |  |  |
| OC[C@H]1O[C@@H]2O[C@H]3[C@H](O)[C@@H](O)[C@@H](O[C@H]4[C@H](O)[C@@H](O)[C@@H](O[C@H]5[C@H](O)[C@@H](O)[C@@H](O[C@H]6[C@H](O)[C@@H](O)[C@@H](O[C@H]7[C@H](O)[C@@H](O)[C@@H](O[C@H]8[C@H](O)[C@@H](O)[C@@H](O[C@H]1[C@H](O)[C@H]2O)O[C@@H]8CO)O[C@@H]7CO)O[C@@H]6CO)O[C@@H]5CO)O[C@@H]4CO)O[C@@H]3CO [BETADEX] | Not Active | Not Active | Not Active | Not Active | Not Active | Not Active | Not Active | Not Active | Not Active |  |  |  |  |  |  |  |  |  |
| COc1ccc(Cl)cc1C(=O)NCCc1ccc(S(=O)(=O)NC(=O)NC2CCCCC2)cc1 [GLYBURIDE] | Not Active | Not Active | Not Active | Not Active | Not Active | Not Active | Not Active | Not Active | Not Active |  |  |  |  |  |  |  |  |  |
| CCN1CCN(C(=O)N[C@@H](C(=O)N[C@@H]2C(=O)N3[C@@H]2SC(C)(C)[C@@H]3C(=O)O)c2ccccc2)C(=O)C1=O [PIPERACILLIN] | Not Active | Not Active | Not Active | Not Active | Not Active | Not Active | Not Active | Not Active | Not Active |  |  |  |  |  |  |  |  |  |

Reference: ChEMBL document CHEMBL1909046, “DrugMatrix in vitro pharmacology data”
